# Data reported in patent publication US20030165475A1, “Non-lethal methods for conditioning a recipient for bone marrow transplantation” (priority 1993, published 2003).
# Where “and” joins values, the source holds several entries; their conditions need not be identical. Identical values can stand only once.
# Columns and labels:
# baboons = test system: baboons
# Protocol: In addition-to TBI, TLI was also tested in conditioning recipients for bone marrow transplantation. As a single dose, TLI was simply a modified form of TBI in that the method of delivery was the same, except that only certain parts of the recipient's body was exposed to the irradiation. […] In the following study, baboons were treated with a single dose of 7.5 Gy of TLI at day 0 followed by transfer of allogeneic baboon bone marrow cells with at least one MHC disparity. […] Xenogeneic transplantation with human cells was also performed in baboons conditioned with TLI.
# B10 mice [1] = type: in vivo, mouse
# Protocol: Briefly, peripheral blood was collected into heparinized plastic serum vials. […] (400g×20 minutes). […] Lymphocytes were stained for class I antigens with anti-H-2^b-FITC (Pharmingen; San Diego, Calif.), anti-H-2^k-FITC (Pharmingen), and anti-H-2^d-FITC (Pharmingen) monoclonal antibodies (Mab) for 45 minutes at 4° C. Lineage typing was performed by two color flow cytometry using anti-B-cell (B220-FITC, Pharmingen), anti-T cell (αβ-TCR-PE, CD4-FITC, CD8-PE, Pharmingen), anti-natural killer cell (NK1.1-PE, Pharmingen), anti-granulocyte (GR-1-FITC, Pharmingen), and anti-monocyte/macrophage (MAC-1-FITC, Boehringer Mannheim; Indianapolis, Id.) Mab. […] Analyses were performed using forward and side scatter characteristics for the lymphoid and myeloid gates.
# To examine whether ALG would enhance the engraftment of allogeneic bone marrow in the established radiation-based model, recipient B10 mice received one of three conditioning approaches prior to transplantation with 40×10^6 or 15×10^6 BALB/c bone marrow cells: 70 mg/kg i.v. ALG given three,days prior to bone marrow transplantation (Group 1); 5Gy of TBI on the day of transplantation (Group 2); or both ALG and TBI as administered in groups 1 and 2 (Group 3). The timing of ALG was chosen to assure maximum immunosuppression at the time of allogeneic bone marrow infusion (Wood et al., 1971, Trans Proc 3(l):676). As in previous analysis, recipients were peripheral blood leukocyte (PBL)-typed for evidence of allogeneic engraftment 2 months following bone marrow transplantation.
# To examine the influence of donor cell number on the ability of ALG and TBI to enhance alloengraftment, dose-titration studies were performed in which the above established radiation plus ALG conditioning were utilized. Recipients were conditioned as above prior to receiving 40×10^6, 15×10^6, or 5×10^6 BALB/c bone marrow cells.
# Animals were PBL typed 2 months following reconstitution.
# To examine the influence of timing of radiation on the engraftment of allogeneic bone marrow, recipient B10 mice were irradiated with 5Gy TBI one week prior to transplantation with 40×10^6 BALB/c allogeneic bone marrow cells.
# B10 mice were treated with ALG at 2 mg/mouse i.v. at day −3 before bone marrow transplantation.
# NOD mice = assay: Partial conditioning for HSC chimerism in NOD mice; type: in vivo, mouse
# Description: Often, higher doses of donor cells are required for engraftment as well as higher doses of conditioning to make space. […] One of the goals of the present studies was to identify a strategy to overcome the alloresistance to chimerism in NOD mice by further reducing the irradiation dose for conditioning.
# The animals were transplanted with 55×10^6 or 60×10^6 B10.BR/SgnSnJ bone marrow cells, respectively.
# B10 mice [2] = assay: Glucose phosphate isomerase-1 (GPI-1) typing of platelets and erythrocytes in mixed allogeneic chimeras; type: in vivo, mouse; details: 5 Gy TBI-based regimen, individual animals, 2 months
# Protocol: Peripheral blood (0.9 ml) was collected into heparinized microcentrifuge vials. The blood was spun for four seconds at the maximal setting (14,000 rpm) of an Eppendorf microcentrifuge (Beckman #5415). This setting was chosen through an optimization strategy in which force and times were varied as a function of retrieved platelet number. This duration included the acceleration phase, which is incomplete when power is curtailed at the four second mark. After this, the samples were allowed to slow to a halt without braking. Platelet-rich plasma was then carefully aspirated with a disposable polyethylene pipette, avoiding any disturbance of the buffy coat. Triplicate platelet counts were obtained using a Coulter Model ZB1 counter (Hialeah, Fla.), and the average (variation 5%) calculated. […]
# Typing of red blood cell (RBC) and platelet phenotypes was performed using the GPI-1 assay (Ildstad, et al., 1991, J Exp Med 174:467). The precipitation pattern for BALB/c mouse and B10 mouse were performed as controls and determined to be totally disparate. […] Percentages were determined by comparison with the positive control. […] In titrations performed to determine the sensitivity of this assay, as low as 2% of BALB/c RBC titrated into normal B10RBC could be reliably detected (Ildstad, et al., 1991, J Exp Med 174:467). […]
# [3] = 600 cGy TBI + CyP 50 mg/kg i.p. two days after BMT, 60 × 10^6 B10.BR cells
smiles,measurement,setting,value
"O=P1(N(CCCl)CCCl)NCCCO1 (centres unmarked) [CyP, cyclophosphamide]",treated animals with stable donor cell engraftment,baboons; 7.5 Gy TLI + single dose CyP 50 mg/kg at day +2,about 50%
same,duration of stable engraftment,baboons; 7.5 Gy TLI + two doses of CyP,≥ 36 weeks
same,engraftment of allogeneic bone marrow,"B10 mice [1]; 5Gy TBI + CyP 200 mg/kg i.p. 2 days later, 40 × 10^6 B10.BR or BALB/c → B10, 2 months",nearly all recipients
same,degree of donor chimerism,"B10 mice [1]; 5Gy TBI + CyP 200 mg/kg i.p. 2 days later, all chimeras",> 90%
same,recipient mice engrafted,"B10 mice [1]; 5Gy TBI and CyP, regardless of donor strain or CyP before or shortly after TBI (n=15)",~75%
same,% BALB/c lymphoid cells,"B10 mice [1]; 5 Gy TBI-based regimen, BALB/c → B10, individual animals, flow cytometry, 2 months",99% and 98% and 91% and 92%
same,engraftment,"B10 mice [1]; CyP 200 mg/kg i.p. alone, no TBI",failed to engraft
same,allogeneic donor chimerism,B10 mice [1]; chimeras after 5Gy TBI and CyP,≥ 90%
same,ANIMALS WITH ENGRAFTMENT,"NOD mice; 600 cGy TBI + 100 μg mAb i.v. day 5, 3, 1 prior, or + 200 mg/kg CyP i.p. two days after, 55 or 60 × 10^6 B10.BR cells",4/4
same,donor chimerism,NOD mice; [3],91.5%
same,engraftment,NOD mice; [3],100%
same,animals engrafted,NOD mice; 600 cGy TBI + single dose CyP 200 mg/kg,100%
same,% BALB/c RBC,B10 mice [2],100%
same,% BALB/c platelets,B10 mice [2],71% and 78% and 69% and 31%
